Test results published in patent US20260077072A1, “METHODS AND COMPOSITIONS FOR IMAGING MALIGNANCIES IN THE BONE MARROW” (Washington University, priority 2022, published 2026).

Columns and labels:
[1] = system: osteolytic lesion in the right iliac bone; experiment: 18F-FDG PET/CT of a multiple myeloma patient; format: in vivo, human; details: same osteolytic lesion in right iliac bone of MM patient
[2] = reported for other copper radiopharmaceuticals; cited from earlier work
CD-1 mice = experiment: Non-GLP tolerability and toxicity study of Cu-LLP2A V2, single IV bolus; format: in vivo
Method: To evaluate the tolerability and toxicity of Cu-CB-TE1A1P-PEG4-LLP2A V2 (Cu-LLP2A V2) tracer/imaging agent when administered once on Day 1 by intravenous (IV) bolus administration to male and female CD-1 mice, the following experiments were conducted. On Day 2 after administering the tracer/imaging agent, the first 10 animals/sex/group (Main Study) were sacrificed and necropsied. The remaining 5 animals/sex/group (Recovery) were weighed and observed for the remainder of the study and necropsied on Day 15.
Each treatment group (Groups 1-2) was comprised of […] CD-1 mice. Mice were administered either vehicle or 0.0604 mg/mouse Cu-LLP2A V2 (Groups 1 and 2, respectively) once on Day 1 via IV bolus injection at a dose volume of 0.125 mL/mouse. Physical examinations were recorded at the time of randomization. Clinical observations were recorded daily. Body weight measurements were taken for randomization and daily. Blood samples for the evaluation of hematology and clinical chemistry were collected on Day 2 (Main Study) and Day 15 (Recovery). Following blood sample collections, a necropsy was conducted. Protocol-specified tissues were collected and evaluated grossly, select organs were weighed, and tissues were fixed for microscopic evaluation. Tissues were subsequently processed and evaluated microscopically.

For `OC[C@H]1OC(O)[C@H]([18F])[C@@H](O)[C@@H]1O` (stereo partly drawn) [^18F-FDG, [^18F]fluorodeoxyglucose], the “SUL-peak (per PERCIST) in lesion” value [1] was 2.1 and the SUV-max in lesion [1] was 2.9.
For `CN=C([S-])N/N=C(C)/C(C)=N/NC([S-])=NC.[64Cu+2]` [^64Cu-ATSM], the Effective dose [2] is listed as 0.036 mSv/MBq.
With “Cu-CB-TE1A1P-PEG4-LLP2A V2 [Cu-LLP2A V2]” the Survival (CD-1 mice; 0.0604 mg/mouse IV, until scheduled sacrifice (Day 2 or Day 15)) was “All animals survived”, the Tolerability (CD-1 mice; single IV injection of 0.0604 mg/mouse, male and female CD-1 mice) was “well tolerated” and the “NOEL (No Observable Effect Level)” value (CD-1 mice; single IV injection, male and female CD-1 mice) was 0.0604 mg/mouse.
